From US7649018B2, “Mono- and di-phosphates of 3-(3-fluoro-4-hydroxy-phenyl)-7-hydroxy-naphthalene-1-carbonitrile” (Wyeth LLC, priority 2007, dated 2010)

Test: Stability of intravenous stock solution
Format: physicochemical
Conditions: stock solution 10 mg/mL in phosphate buffered saline adjusted to pH about 7.4 with NaOH; at 40 C
Experimental: Preparation Procedures: An intravenous formulation will be made as a stock solution (10 mg/mL) one day prior to the start of dosing consisting of phosphate buffered saline adjusted to pH about 7.4 with NaOH. The dosing formulations will be prepared on the day of dosing by diluting the appropriate amount of the stock solution with D5W to obtain concentrations of 3.14 mg/mL of Compound 3 and then will be sterile filtered using a 0.20 micron filter about few hours prior to the start of dosing. The test formulation was stored at approximately 4° C. protected from light. The vehicle used for IV introduction was phosphate buffered saline consisting of 0.0144% (w/v) of KH2PO4, 0.90% (w/v) of NaCL, 0.0795% (w/v) of Na2HPO4, 0.325% of NaOH (1N) and […] sterile water for injection with the resulting pH of approximately 7.4. The stock solution (10 mg/mL) is stable for 7 days at 40 C.

## N#Cc1cc(-c2ccc(OP(=O)(O)O)c(F)c2)cc2ccc(OP(=O)(O)O)cc12 [Compound 3]
  Time over which stock solution is stable: 7 days
